What was measured:
Format in all cases: in vivo
[1] = test system: windgrass (Apera spica-venti); experiment: Test B postemergence plant response; details: for Windgrass plant response rating (0 to 100 scale): 62 g ai/ha, postemergence, 0 is no effect, 100 is complete control, 13 to 15 days; for Plant response rating, Windgrass: Postemergence, 125 g ai/ha, scale 0 to 100 (0 no effect, 100 complete control)
In short: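 Visual ratings from 0 (no effect) to 100 (complete control), made against controls 13–15 days after treatment, kept in a greenhouse. Compounds were applied postemergence to potted plants at the 1- to 4-leaf stage (2–18 cm).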

[2] = test system: giant foxtail (Setaria faberii); experiment: Test A pre-/postemergence plant response
In short: (§1)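 Injury was scored visually after roughly ten days against untreated controls, 0 = no effect, 100 = complete control. Test chemicals in a surfactant-containing non-phytotoxic solvent were sprayed either onto soil preemergence or onto one- to two-leaf, 2–10 cm plants postemergence.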

[3] = test system: corn (Zea mays); experiment: Test A pre-/postemergence plant response
In short: as §1

[4] = test system: barnyardgrass (Echinochloa crus-galli); experiment: Test A pre-/postemergence plant response
In short: as §1

[5] = test system: wheat (Triticum aestivum); experiment: Test A pre-/postemergence plant response
In short: as §1

[6] = test system: pigweed (Amaranthus retroflexus); experiment: Test A pre-/postemergence plant response
In short: as §1

[7] = test system: large crabgrass (Digitaria sanguinalis); experiment: Test A pre-/postemergence plant response
In short: as §1

[8] = test system: velvetleaf (Abutilon theophrasti); experiment: Test A pre-/postemergence plant response
In short: as §1

[9] = test system: morningglory (Ipomoea spp.); experiment: Test A pre-/postemergence plant response
In short: as §1

[10] = test system: barnyardgrass (Echinochloa crus-galli); experiment: Test B flooded paddy test; details: for Plant response rating, Flood, Barnyardgrass: 250 g ai/ha, flooded paddy test, visual rating on 0 to 100 scale (0 no effect, 100 complete control) after 13 to 15 days; for Plant response rating, Barnyardgrass: Flood (flooded paddy test), 13 to 15 days; for Barnyardgrass plant response rating: Flood, 31 g ai/ha, scale 0 to 100 (0 no effect, 100 complete control)
In short: (§2)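 Plants were grown to the 2-leaf stage, then pots were flooded to 3 cm above the soil and compounds were applied directly into the paddy water. That depth was held throughout. After 13 to 15 days in a greenhouse, injury was visually rated against controls on a 0–100 scale.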

[11] = test system: umbrella sedge (Cyperus difformis); experiment: Test B flooded paddy test; details: for Plant response rating, Flood, Sedge, Umbrella: 250 g ai/ha, flooded paddy test, visual rating on 0 to 100 scale (0 no effect, 100 complete control) after 13 to 15 days; for Plant response rating, Sedge, Umbrella: Flood (flooded paddy test), 13 to 15 days; for Sedge, Umbrella plant response rating: Flood, 31 g ai/ha, scale 0 to 100 (0 no effect, 100 complete control)
In short: as §2

[12] = test system: ducksalad (Heteranthera limosa); experiment: Test B flooded paddy test; details: for Plant response rating, Flood, Ducksalad: 250 g ai/ha, flooded paddy test, visual rating on 0 to 100 scale (0 no effect, 100 complete control) after 13 to 15 days; for Plant response rating, Ducksalad: Flood (flooded paddy test), 13 to 15 days; for Ducksalad plant response rating: Flood, 31 g ai/ha, scale 0 to 100 (0 no effect, 100 complete control)
In short: as §2

[13] = test system: rice (Oryza sativa); experiment: Test B flooded paddy test; details: for Plant response rating, Flood, Rice: 250 g ai/ha, flooded paddy test, visual rating on 0 to 100 scale (0 no effect, 100 complete control) after 13 to 15 days; for Plant response rating, Rice: Flood (flooded paddy test), 13 to 15 days; for Rice plant response rating: Flood, 31 g ai/ha, scale 0 to 100 (0 no effect, 100 complete control)
In short: as §2

[14] = Postemergence, 125 g ai/ha, 0 to 100 scale where 0 is no effect and 100 is complete control
[15] = Postemergence, 500 g ai/ha, 0 to 100 scale, 0 = no effect, 100 = complete control, approx. ten days
[16] = Preemergence, 125 g ai/ha, 0 to 100 scale, 0 = no effect, 100 = complete control
[17] = Preemergence, 500 g ai/ha, visual injury, 0 to 100 scale (0 no effect, 100 complete control), approx. ten days
[18] = 62 g ai/ha, scale of 0 to 100 where 0 is no effect and 100 is complete control
[19] = 125 g ai/ha, scale 0 to 100, 0 is no effect, 100 is complete control

## O=C1CCCC(O)=C1C(=O)c1cnc(-c2cccs2)n(CC2CCCO2)c1=O (stereo not drawn) [Compound 109]
[1]
  Windgrass plant response rating (0 to 100 scale): 40
  Plant response rating, Windgrass: 60
[2]; [14]
  Plant response rating, Foxtail, Giant: 70
[2]; [15]
  Plant response rating, Foxtail, Giant: 90
[2]; [16]
  Plant response rating, Foxtail, Giant: 0
[2]; [17]
  Plant response rating, Foxtail, Giant: 30
[3]; [14]
  Plant response rating, Corn: 0
[3]; [15]
  Plant response rating, Corn: 30
[3]; [16]
  Plant response rating, Corn: 0
[3]; [17]
  Plant response rating, Corn: 0
[4]; [14]
  Plant response rating, Barnyardgrass: 80
[4]; [15]
  Plant response rating, Barnyardgrass: 90
[4]; [16]
  Plant response rating, Barnyardgrass: 10
[4]; [17]
  Plant response rating, Barnyardgrass: 70
[5]; [14]
  Plant response rating, Wheat: 0
[5]; [15]
  Plant response rating, Wheat: 0
[5]; [16]
  Plant response rating, Wheat: 0
[5]; [17]
  Plant response rating, Wheat: 0
[6]; [14]
  Plant response rating, Pigweed: 100
[6]; [15]
  Plant response rating, Pigweed: 100
[6]; [16]
  Plant response rating, Pigweed: 90
[6]; [17]
  Plant response rating, Pigweed: 100
[7]; [14]
  Plant response rating, Crabgrass, Large: 90
[7]; [15]
  Plant response rating, Crabgrass, Large: 100
[7]; [16]
  Plant response rating, Crabgrass, Large: 40
[7]; [17]
  Plant response rating, Crabgrass, Large: 90
[8]; [14]
  Plant response rating, Velvetleaf: 100
[8]; [15]
  Plant response rating, Velvetleaf: 100
[8]; [16]
  Plant response rating, Velvetleaf: 70
[8]; [17]
  Plant response rating, Velvetleaf: 100
[9]; [14]
  Plant response rating, Morningglory: 90
[9]; [15]
  Plant response rating, Morningglory: 100
[9]; [16]
  Plant response rating, Morningglory: 40
[9]; [17]
  Plant response rating, Morningglory: 70
[10]
  Plant response rating, Flood, Barnyardgrass: 20
  Barnyardgrass plant response rating: 0
[10]; [18]
  Plant response rating, Barnyardgrass: 0
[10]; [19]
  Plant response rating, Barnyardgrass: 20
[11]
  Plant response rating, Flood, Sedge, Umbrella: 80
  Sedge, Umbrella plant response rating: 50
[11]; [18]
  Plant response rating, Sedge, Umbrella: 60
[11]; [19]
  Plant response rating, Sedge, Umbrella: 75
[12]
  Plant response rating, Flood, Ducksalad: 100
  Ducksalad plant response rating: 50
[12]; [18]
  Plant response rating, Ducksalad: 60
[12]; [19]
  Plant response rating, Ducksalad: 65
[13]
  Plant response rating, Flood, Rice: 25
  Rice plant response rating: 0
[13]; [18]
  Plant response rating, Rice: 0
[13]; [19]
  Plant response rating, Rice: 20

## COCCn1c(-c2ccco2)ncc(C(=O)C2=C(O)CCCC2=O)c1=O [Compound 111]
[1]
  Windgrass plant response rating (0 to 100 scale): 30
  Plant response rating, Windgrass: 35
[2]; [14]
  Plant response rating, Foxtail, Giant: 60
[2]; [15]
  Plant response rating, Foxtail, Giant: 90
[2]; [17]
  Plant response rating, Foxtail, Giant: 70
[3]; [14]
  Plant response rating, Corn: 0
[3]; [15]
  Plant response rating, Corn: 30
[3]; [16]
  Plant response rating, Corn: 0
[3]; [17]
  Plant response rating, Corn: 0
[4]; [14]
  Plant response rating, Barnyardgrass: 90
[4]; [15]
  Plant response rating, Barnyardgrass: 90
[4]; [16]
  Plant response rating, Barnyardgrass: 30
[4]; [17]
  Plant response rating, Barnyardgrass: 90
[5]; [14]
  Plant response rating, Wheat: 0
[5]; [15]
  Plant response rating, Wheat: 0
[5]; [16]
  Plant response rating, Wheat: 0
[5]; [17]
  Plant response rating, Wheat: 0
[6]; [14]
  Plant response rating, Pigweed: 100
[6]; [15]
  Plant response rating, Pigweed: 100
[6]; [16]
  Plant response rating, Pigweed: 100
[6]; [17]
  Plant response rating, Pigweed: 100
[7]; [14]
  Plant response rating, Crabgrass, Large: 90
[7]; [15]
  Plant response rating, Crabgrass, Large: 90
[7]; [16]
  Plant response rating, Crabgrass, Large: 90
[7]; [17]
  Plant response rating, Crabgrass, Large: 100
[8]; [14]
  Plant response rating, Velvetleaf: 100
[8]; [15]
  Plant response rating, Velvetleaf: 100
[8]; [16]
  Plant response rating, Velvetleaf: 90
[8]; [17]
  Plant response rating, Velvetleaf: 100
[9]; [14]
  Plant response rating, Morningglory: 100
[9]; [15]
  Plant response rating, Morningglory: 100
[9]; [16]
  Plant response rating, Morningglory: 50
[9]; [17]
  Plant response rating, Morningglory: 80
[10]
  Plant response rating, Flood, Barnyardgrass: 60
  Barnyardgrass plant response rating: 0
[10]; [18]
  Plant response rating, Barnyardgrass: 40
[10]; [19]
  Plant response rating, Barnyardgrass: 50
[11]
  Plant response rating, Flood, Sedge, Umbrella: 85
  Sedge, Umbrella plant response rating: 0
[11]; [18]
  Plant response rating, Sedge, Umbrella: 75
[11]; [19]
  Plant response rating, Sedge, Umbrella: 80
[12]
  Plant response rating, Flood, Ducksalad: 75
  Ducksalad plant response rating: 30
[12]; [18]
  Plant response rating, Ducksalad: 30
[12]; [19]
  Plant response rating, Ducksalad: 75
[13]
  Plant response rating, Flood, Rice: 30
  Rice plant response rating: 0
[13]; [18]
  Plant response rating, Rice: 0
[13]; [19]
  Plant response rating, Rice: 0

Reference: patent US8952024B2, “Herbicidal pyrimidone derivatives” (E I du Pont de Nemours and Company, priority 2009, dated 2015)
